Test results published in ChEMBL document CHEMBL1134919, “1,3,4-Trisubstituted pyrrolidine CCR5 receptor antagonists. Part 3: polar functionality and its effect on anti-HIV-1 activity” (Bioorg Med Chem Lett, 2002).

How the values were obtained:
[1] = Inhibition (CIC90) of a single HIV-1 (BAL) infection cycle in HeLa Magi cells expressing both CXCR4 and CCR5 receptors over a 48 h period; assay type: functional; conditions: Homo sapiens
[2] = biological target: T1, C-C chemokine receptor type 5 (Homo sapiens, UniProt P51681); test: biochemical; assay type: cell-based, CHO
Target sequence in this assay (P51681 whole entry): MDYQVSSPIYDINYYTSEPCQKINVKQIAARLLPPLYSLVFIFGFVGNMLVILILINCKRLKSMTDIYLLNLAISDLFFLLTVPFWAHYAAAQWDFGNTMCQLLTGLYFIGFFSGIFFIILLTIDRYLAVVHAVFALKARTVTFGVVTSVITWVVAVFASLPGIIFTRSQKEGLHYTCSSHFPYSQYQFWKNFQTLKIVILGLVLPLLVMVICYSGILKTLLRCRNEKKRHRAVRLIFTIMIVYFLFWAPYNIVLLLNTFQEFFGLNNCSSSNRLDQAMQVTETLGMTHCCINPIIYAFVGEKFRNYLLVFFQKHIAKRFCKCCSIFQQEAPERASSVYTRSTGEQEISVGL

[3] = Plasma clearance rate was determined for the compound in rat; assay type: ADME, organism-based; conditions: read-out: Clp
[4] = Half-life period was determined for the compound in rat; assay type: ADME, organism-based; conditions: in vivo
[5] = biological target: T1, C-C chemokine receptor type 5; test: Concentration that inhibits the entry of HIV-1 in to peripheral blood mononuclear cells (PBMCs) via the antagonism of CCR5 receptor.; assay type: functional
Target sequence in this assay (P51681 whole entry, looked up): as the sequence (P51681 whole entry) above

[6] = biological target: T1, C-C chemokine receptor type 5; test: Displacement of [125I]-labeled MIP-1alpha from the C-C chemokine receptor type 5 expressed on CHO cell membranes.; assay type: cell-based
Target sequence in this assay (P51681 whole entry): as above

| Structure (SMILES) | IC90 [1] [nM] | IC50 [2] [nM] | further results |
| --- | --- | --- | --- |
| C[n+]1n[nH]c(-c2ccc(CCCC3(O)CCN(C[C@H]4CN(CC5CCCCC5)C[C@@H]4c4ccccc4)CC3)cc2)n1 | > 300 | 0.4 |  |
| OC1(CCCc2ccc(Cc3nnn[nH]3)cc2)CCN(C[C@H]2CN(CC3CCCCC3)C[C@@H]2c2ccccc2)CC1 | 100 | 1 |  |
| OC1(CCCc2ccc(-c3nnn[nH]3)cc2)CCN(C[C@H]2CN(CC3CCCCC3)C[C@@H]2c2ccccc2)CC1 | 4 | 0.2 | clearance [3]: 61 mL/min/kg; half-life [4]: 20 min |
| C=CCN(C(=O)OCc1ccc([N+](=O)[O-])cc1)C1CCN(C[C@H]2CN(C(=O)c3ccccc3Cl)C[C@@H]2c2ccccc2)CC1 | 1 |  | IC95 [5]: 31 nM |
| Cn1nnnc1-c1ccc(CCCC2(O)CCN(C[C@H]3CN(CC4CCCCC4)C[C@@H]3c3ccccc3)CC2)cc1 | 100 | 0.2 |  |
| OC1(CCCc2cccnc2)CCN(C[C@H]2CN(CC3CCCCC3)C[C@@H]2c2ccccc2)CC1 |  |  | IC50 [6]: 6 nM |
| OC1(CCCc2ccncc2)CCN(C[C@H]2CN(CC3CCCCC3)C[C@@H]2c2ccccc2)CC1 |  |  | IC50 [6]: 12 nM |
| OC1(CCCc2ccccn2)CCN(C[C@H]2CN(CC3CCCCC3)C[C@@H]2c2ccccc2)CC1 |  |  | IC50 [6]: 7 nM |

Continued, in another order:

| IC90 [1] [nM] | IC50 [2] [nM] | Structure (SMILES) | further results |
| --- | --- | --- | --- |
| 300 | 6 | O=C(O)Cc1cccc(CCCC2(O)CCN(C[C@H]3CN(CC4CCCCC4)C[C@@H]3c3ccccc3)CC2)c1 |  |
| > 1000 | 3 | O=C(O)c1cccc(CCCC2(O)CCN(C[C@H]3CN(CC4CCCCC4)C[C@@H]3c3ccccc3)CC2)c1 |  |
| 200 |  | OC1(CCCc2ccccc2)CCN(C[C@H]2CN(CC3CCCCC3)C[C@@H]2c2ccccc2)CC1 | IC50 [6]: 0.3 nM; IC95 [5]: 580 nM |
| > 1000 | 100 | O=C(O)c1ccccc1CCCC1(O)CCN(C[C@H]2CN(CC3CCCCC3)C[C@@H]2c2ccccc2)CC1 |  |
| 40 | 2 | O=C(O)CCc1ccc(CCCC2(O)CCN(C[C@H]3CN(CC4CCCCC4)C[C@@H]3c3ccccc3)CC2)cc1 |  |
| 100 | 5 | O=C(O)Cc1ccc(CCCC2(O)CCN(C[C@H]3CN(CC4CCCCC4)C[C@@H]3c3ccccc3)CC2)cc1 |  |
| 1000 | 10 | O=C(O)c1ccc(CCCC2(O)CCN(C[C@H]3CN(CC4CCCCC4)C[C@@H]3c3ccccc3)CC2)cc1 |  |
